System: cisatracurium-induced guinea pig muscle relaxation model
Test: Arterial blood pressure and heart rate in the cisatracurium muscle relaxation model
Format: in vivo, Hartley guinea pigs
Experimental: Ninety (90) qualified Hartley guinea pigs, male, were used. Sixty (60) animals were randomly divided into 6 experimental groups based on body weight using a stratified random method: negative control group, positive control group, low-dose test group, medium-dose test group, high-dose test group, and combination group, with 10 animals per group (n=10). The remaining animals served as spares. The negative control group received 0.9% sodium chloride. The positive control group received 0.0625 mg/kg neostigmine methylsulfate (referred to as neostigmine). The low-dose test group received 10 mg/kg adamgammadex sodium. The medium-dose test group received 20 mg/kg adamgammadex sodium. The high-dose test group received 40 mg/kg adamgammadex sodium. The combination group received 10 mg/kg adamgammadex sodium and 0.03125 mg/kg neostigmine. The administration volume for all groups was 1 mL/kg.
Adaptive feeding was conducted after the quarantine period. On the day of the experiment, guinea pigs were weighed, administered atropine (0.1 mg/kg) intramuscularly, and then anesthetized with an intraperitoneal injection of anesthetic (pentobarbital sodium 10 mg/kg, urethane 1000 mg/kg). After fixation, the animals were intubated and connected to a small animal ventilator. Both external jugular veins and the right carotid artery were cannulated. The left jugular vein was used for cisatracurium infusion, the right jugular vein for injection of different test substances, and the carotid artery was connected to a multi-channel physiological signal acquisition and processing system for continuous monitoring of arterial blood pressure and heart rate. Electrode patches were subcutaneously placed behind the left femur and tibia of the guinea pig, and two stimulating electrodes of the neuromuscular monitor were fixed to the two electrode patches. The left hind paw was fixed on a custom-made platform. A sensor was fixed to the skin surface over the gastrocnemius muscle of the left hind limb, and a skin temperature probe was fixed to a flat area of skin. Continuous single-twitch stimulation was applied at 1 Hz. After the twitch height stabilized, the mode was switched to train-of-four stimulation (TOF mode, stimulus current 5 mA, frequency 2 Hz, pulse width 0.2 ms, interval between trains 15 s) for at least 5 min. Calibration was then performed using Calibration Mode 2, followed by TOF mode stimulation. After obtaining a stable stimulation response for at least 2 min, cisatracurium solution was infused intravenously using a dual-channel micro-infusion pump, and the start time of infusion was recorded. […] At this point, cisatracurium infusion was stopped. After stopping the infusion, neuromuscular function was allowed to recover spontaneously. When neuromuscular function reached moderate recovery, the test drug formulation was administered intravenously. Neuromuscular function was allowed to recover completely, and the administration time was recorded (Figure 1). Using the time of spontaneous recovery to moderate neuromuscular function (TOF50) as zero point, the times for recovery from TOF50 to TOF75, TOF75 to TOF90, and TOF50 to TOF90 were calculated for each animal (Table 1-2). Arterial blood pressure (systolic, diastolic, mean arterial pressure) and heart rate were recorded before cisatracurium infusion, at the time cisatracurium infusion was stopped, at the time of moderate neuromuscular recovery, and at the time of complete neuromuscular function recovery (Tables 3-7). Data were expressed as Mean ± SD. Statistical T-tests were performed using SPSS software to evaluate differences in blood pressure, heart rate, and residual neuromuscular blockade recovery times. P < 0.05 was considered statistically significant.

[1] = positive control group, 0.0625 mg/kg i.v.
[2] = high-dose test group, 40 mg/kg i.v.
[3] = low-dose test group, 10 mg/kg i.v.
[4] = medium-dose test group, 20 mg/kg i.v.

## CN(C)C(=O)Oc1cccc([N+](C)(C)C)c1 [Neostigmine, neostigmine methylsulfate]
0.0625 mg/kg
  effect on heart rate (in words): significant side effect of lowering heart rate
0.0625 mg/kg neostigmine, positive control group, summary statement
  heart rate decrease: approximately 30%
[1]
  Heart rate Administration: 238+42 bmp
  Heart rate Complete Recovery: 157±49 bmp
  Heart rate Moderate Recovery: 181±54 bmp
  Heart rate Muscle Relaxation End: 239+11 bmp
  Heart rate Muscle Relaxation Start: 240+14 bmp
  Mean Arterial Pressure mAP Administration: 68+12 mmHg
  Mean Arterial Pressure mAP Complete Recovery: 67+15 mmHg
  Mean Arterial Pressure mAP Moderate Recovery: 69+12 mmHg
  Mean Arterial Pressure mAP Muscle Relaxation End: 63+8 mmHg
  Mean Arterial Pressure mAP Muscle Relaxation Start: 62+11 mmHg
  Mean Diastolic Pressure mDP Administration: 60+10 mmHg
  Mean Diastolic Pressure mDP Complete Recovery: 58+15 mmHg
  Mean Diastolic Pressure mDP Moderate Recovery: 61+12 mmHg
  Mean Diastolic Pressure mDP Muscle Relaxation End: 57+6 mmHg
  Mean Diastolic Pressure mDP Muscle Relaxation Start: 56±9 mmHg
  Mean Pulse Pressure Administration: 17±8 mmHg
  Mean Pulse Pressure Complete Recovery: 19+6 mmHg
  Mean Pulse Pressure Moderate Recovery: 19±8 mmHg
  Mean Pulse Pressure Muscle Relaxation End: 14±5 mmHg
  Mean Pulse Pressure Muscle Relaxation Start: 15+4 mmHg
  Mean Systolic Pressure mSP Administration: 76±15 mmHg
  Mean Systolic Pressure mSP Complete Recovery: 78±13 mmHg
  Mean Systolic Pressure mSP Moderate Recovery: 79±13 mmHg
  Mean Systolic Pressure mSP Muscle Relaxation End: 71±10 mmHg
  Mean Systolic Pressure mSP Muscle Relaxation Start: 71±12 mmHg
Positive control group, 0.0625 mg/kg i.v., vs heart rate at start of muscle relaxation
  Degree of heart rate decrease at complete muscle relaxation recovery: 35%

## Adamgammadex sodium [Compound 1]
10, 20, and 40 mg/kg
  effect on animal blood pressure or heart rate (in words): no effect on animal blood pressure or heart rate
[2]
  Heart rate Administration: 258+18 bmp
  Heart rate Complete Recovery: 258+16 bmp
  Heart rate Moderate Recovery: 257+18 bmp
  Heart rate Muscle Relaxation End: 249±21 bmp
  Heart rate Muscle Relaxation Start: 243+27 bmp
  Mean Arterial Pressure mAP Administration: 70±8 mmHg
  Mean Arterial Pressure mAP Complete Recovery: 73+10 mmHg
  Mean Arterial Pressure mAP Moderate Recovery: 72+8 mmHg
  Mean Arterial Pressure mAP Muscle Relaxation End: 65+10 mmHg
  Mean Arterial Pressure mAP Muscle Relaxation Start: 64+12 mmHg
  Mean Diastolic Pressure mDP Administration: 60+7 mmHg
  Mean Diastolic Pressure mDP Complete Recovery: 63±9 mmHg
  Mean Diastolic Pressure mDP Moderate Recovery: 62±8 mmHg
  Mean Diastolic Pressure mDP Muscle Relaxation End: 56+9 mmHg
  Mean Diastolic Pressure mDP Muscle Relaxation Start: 56+12 mmHg
  Mean Pulse Pressure Administration: 21±5 mmHg
  Mean Pulse Pressure Complete Recovery: 21+5 mmHg
  Mean Pulse Pressure Moderate Recovery: 21+4 mmHg
  Mean Pulse Pressure Muscle Relaxation End: 19±5 mmHg
  Mean Pulse Pressure Muscle Relaxation Start: 18+4 mmHg
  Mean Systolic Pressure mSP Administration: 81±10 mmHg
  Mean Systolic Pressure mSP Complete Recovery: 84±11 mmHg
  Mean Systolic Pressure mSP Moderate Recovery: 83±9 mmHg
  Mean Systolic Pressure mSP Muscle Relaxation End: 75±11 mmHg
  Mean Systolic Pressure mSP Muscle Relaxation Start: 74±12 mmHg
[3]
  Heart rate Administration: 269+20 bmp
  Heart rate Complete Recovery: 270+18 bmp
  Heart rate Moderate Recovery: 268+20 bmp
  Heart rate Muscle Relaxation End: 261+20 bmp
  Heart rate Muscle Relaxation Start: 259+30 bmp
  Mean Arterial Pressure mAP Administration: 75+15 mmHg
  Mean Arterial Pressure mAP Complete Recovery: 76+13 mmHg
  Mean Arterial Pressure mAP Moderate Recovery: 74+10 mmHg
  Mean Arterial Pressure mAP Muscle Relaxation End: 70+11 mmHg
  Mean Arterial Pressure mAP Muscle Relaxation Start: 70±16 mmHg
  Mean Diastolic Pressure mDP Administration: 67+13 mmHg
  Mean Diastolic Pressure mDP Complete Recovery: 68+11 mmHg
  Mean Diastolic Pressure mDP Moderate Recovery: 65+8 mmHg
  Mean Diastolic Pressure mDP Muscle Relaxation End: 62+9 mmHg
  Mean Diastolic Pressure mDP Muscle Relaxation Start: 61+14 mmHg
  Mean Pulse Pressure Administration: 19+6 mmHg
  Mean Pulse Pressure Complete Recovery: 18+6 mmHg
  Mean Pulse Pressure Moderate Recovery: 18±5 mmHg
  Mean Pulse Pressure Muscle Relaxation End: 17+4 mmHg
  Mean Pulse Pressure Muscle Relaxation Start: 18±5 mmHg
  Mean Systolic Pressure mSP Administration: 85±18 mmHg
  Mean Systolic Pressure mSP Complete Recovery: 86±16 mmHg
  Mean Systolic Pressure mSP Moderate Recovery: 83±12 mmHg
  Mean Systolic Pressure mSP Muscle Relaxation End: 79±12 mmHg
  Mean Systolic Pressure mSP Muscle Relaxation Start: 79±18 mmHg
[4]
  Heart rate Administration: 259+38 bmp
  Heart rate Complete Recovery: 263+36 bmp
  Heart rate Moderate Recovery: 261+35 bmp
  Heart rate Muscle Relaxation End: 247+42 bmp
  Heart rate Muscle Relaxation Start: 242+43 bmp
  Mean Arterial Pressure mAP Administration: 70+8 mmHg
  Mean Arterial Pressure mAP Complete Recovery: 73+6 mmHg
  Mean Arterial Pressure mAP Moderate Recovery: 74+7 mmHg
  Mean Arterial Pressure mAP Muscle Relaxation End: 65+10 mmHg
  Mean Arterial Pressure mAP Muscle Relaxation Start: 64±8 mmHg
  Mean Diastolic Pressure mDP Administration: 61+8 mmHg
  Mean Diastolic Pressure mDP Complete Recovery: 64+6 mmHg
  Mean Diastolic Pressure mDP Moderate Recovery: 64+6 mmHg
  Mean Diastolic Pressure mDP Muscle Relaxation End: 57+9 mmHg
  Mean Diastolic Pressure mDP Muscle Relaxation Start: 56+8 mmHg
  Mean Pulse Pressure Administration: 19±3 mmHg
  Mean Pulse Pressure Complete Recovery: 20+4 mmHg
  Mean Pulse Pressure Moderate Recovery: 20+3 mmHg
  Mean Pulse Pressure Muscle Relaxation End: 18±3 mmHg
  Mean Pulse Pressure Muscle Relaxation Start: 18±3 mmHg
  Mean Systolic Pressure mSP Administration: 80±8 mmHg
  Mean Systolic Pressure mSP Complete Recovery: 84±7 mmHg
  Mean Systolic Pressure mSP Moderate Recovery: 84±7 mmHg
  Mean Systolic Pressure mSP Muscle Relaxation End: 75±10 mmHg
  Mean Systolic Pressure mSP Muscle Relaxation Start: 74±9 mmHg
